Measured values as given in patent publication US9546383B2, “Human pluripotent embryonic stem cells produced by nuclear transfer using a somatic cell nucleus treated with HVJ-E extract and an oocyte from a donor cycle that produced 15 or fewer oocytes” (priority 2013, dated 2017).
Where a SMILES comes first, the peptide text is derived from it. [ ]: non-standard residue; d: D form. d(hArg(Et2)) = CCN=C(NCC)NCCCC[C@@H](N)C(=O)O; hArg(Et2) = CCN=C(NCC)NCCCC[C@H](N)C(=O)O; dPhe(4-Cl) = N[C@H](Cc1ccc(Cl)cc1)C(=O)O; d2Nal = N[C@H](Cc1ccc2ccccc2c1)C(=O)O; d3Pal = N[C@H](Cc1cccnc1)C(=O)O

Key:
[1] = Ovarian stimulation of egg donors under different pituitary suppression regimens; type: in vivo, human; conditions: antagonist 6 cycles, agonist 4 cycles
Procedure: Optimal stimulation protocols giving the best chance of producing oocytes capable of producing NT-ESCs using SCNT were sought. The impact of GnRH agonists and antagonists used to suppress the pituitary function of egg donors were first assessed. Prior to stimulations, the anti-mullerian hormone (AMH) level and antral follicle counts (AFC) were measured for each individual egg donor (Table S3). Donors with higher AMH and AFC profiles are associated with high ovarian reserve and received the GnRH agonist Lupron® (4 cycles) while the remaining donors were provided with the GnRH antagonist (ganirelix, 6 cycles) (Table 3).
Ovarian stimulation protocols followed established clinical IVF guidelines as we described previously (Tachibana et al, 2013 supra). Briefly, a combination of recombinant follicle stimulating hormone (rFSH) and human menopausal gonadotropins (hMG) and either GnRH agonist (Lupron®, Tap Pharmaceutical Products, Lake Forest, Ill.) or antagonist (Ganirelix®, Merck & Co, Whitehouse Station, N.J.) were given. Human chorionic gonadotropin (hCG) was prescribed to trigger oocyte maturation. Self administration of injectable rFSH (sc, Follistim®, Merck & Co, Whitehouse Station, N.J.) commenced on cycle day 2 or 3 and continued for approximately 8-12 days. The starting gonadotropin dose was 75-125 IU/day and 1-2 A hMG (sc, Menopur®, Ferring Pharmaceuticals, Inc. Parsippany, N.J.); the dose was adjusted per individual response using an established step-down regimen until the day of hCG injection. Ovarian response and follicular growth were monitored by transvaginal ultrasound and measurements of serum estradiol levels. When two or more follicles reached >18 mm in diameter, subjects received hCG ([…], sc, Ovidrel®, EMDSerono, Rockland, Mass.) to trigger maturation. Thirty-six hours following hCG injection, subjects underwent oocyte retrieval via transvaginal follicular aspirations.

human SCNT embryos [2] = assay: Human SCNT embryo development and NT-ESC derivation by GnRH agonist or antagonist treatment of oocyte donor; type: cell-based; conditions: oocytes from treated donors
Procedure: A retrospective analysis of ovarian stimulation procedures was conducted in order to determine the effect of the number of oocytes retrieved per cycle on human SCNT embryo development and NT-ESC derivation outcomes. Oocyte donation cycles were divided into three groups based on the range of collected mature MII oocytes—10 or fewer oocytes per cycle (5 donors), between 11 to 15 oocytes (2 donors) and more than 16 oocytes per cycle (3 donors). While survival after enucleation, fusion, pronuclear formation and cleavage of SCNT embryos were similar between these groups, more embryos derived from the donors producing ≧16 MII oocytes/cycle arrested after the 8-cell stage than the other two groups (FIG. 5A). In addition, the quality of SCNT blastocysts also negatively correlated with the number of collected oocytes per cycle. […] The peak estradiol (E2) level measured in blood of egg donors prior to hCG priming positively correlated with the subsequent yield of oocytes (FIG. 10). […]
Optimal stimulation protocols giving the best chance of producing oocytes capable of producing NT-ESCs using SCNT were sought. The impact of GnRH agonists and antagonists used to suppress the pituitary function of egg donors were first assessed. Prior to stimulations, the anti-mullerian hormone (AMH) level and antral follicle counts (AFC) were measured for each individual egg donor (Table S3). […]

Monkey SCNT embryo [3] = assay: Monkey SCNT embryo development after treatment with trichostatin A (TSA); type: cell-based, rhesus macaque
Procedure: (§1) However, the quality of such blastocysts and their potential to give rise to stable ESCs remained unknown until this current disclosure. A total of 16 monkey SCNT blastocysts produced with TSA treatment were plated on mitotically inactivated mouse embryonic fibroblast (mEF) feeders. None of these blastocysts produced NT-ESC lines (Table 1). Lower TSA concentrations as well as shorter exposure times to TSA had no effect on monkey SCNT blastocyst development and ESC isolation.
(§2) Oocyte collections, SCNT, embryo culture and NT-ESC isolation procedures were performed as previously described (Byrne et al, 2007 supra; Sparman et al., 2009, supra; Sparman et al, 2010 supra).

monkey SCNT blastocysts = assay: Monkey NT-ESC isolation after treatment with TSA; type: cell-based, rhesus macaque
Procedure: as §1, §2

Monkey SCNT embryo [4] = conditions: 37.5 nM TSA; from 4% without; cited from earlier work
human SCNT embryos [5] = assay: Human SCNT with caffeine during enucleation and fusion: spindle formation and blastocyst development; type: cell-based
Procedure: As expected, somatic cell nuclei introduced into oocyte cytoplasts under these conditions efficiently formed spindle-like structures detectable under birefringence microscope (83.3%, 10/12) (FIG. 2D). […] Human SCNT blastocysts in this group contained visible, prominent ICMs similar to that observed for IVF embryos (FIG. 2E).
Enucleation of MII spindles were performed as described previously (Tachibana et al., 2013 supra). […] The droplet was covered with tissue culture oil and oocytes maintained at 37° C. for 10-15 min before spindle removal. The dish was then mounted on the stage of an inverted microscope (Olympus IX71®) equipped with a stage warmer (http://www.tokaihit.com) Narishige micromanipulators, Oosight™ Imaging System (www.cri-inc.com) and a laser objective (www.hamiltonthorne.com). An oocyte was positioned by a holding pipette so that the spindle was situated between the 2 o'clock and 4 o'clock position. The zona pellucida next to the spindle was drilled with a laser pulse and an enucleation pipette was inserted through the opening. A small amount of cytoplasm surrounded by plasma membrane and contacting spindle was aspirated into the pipette. Next, a disaggregated fibroblast was aspirated into a micropipette and briefly transferred to the drop containing HVJ-E extract (Ishihara Sangyo Kaisha Ltd). […]

[6] = TSA 10 nM, 12 h, 23 plated blastocysts

## CCNC(=O)[C@@H]1CCCN1C(=O)[C@H](CCCNC(=N)N)NC(=O)[C@H](CC(C)C)NC(=O)[C@@H](CC(C)C)NC(=O)[C@H](Cc1ccc(O)cc1)NC(=O)[C@H](CO)NC(=O)[C@H](Cc1c[nH]c2ccccc12)NC(=O)[C@H](Cc1c[nH]cn1)NC(=O)[C@@H]1CCC(=O)N1 [GnRH agonist]
[1]
  Peak E2: 2709 ± 1597.3
Human SCNT embryos [2]
  SCNT embryo development beyond the 8-cell stage: impaired

## CCN=C(NCC)NCCCC[C@H](NC(=O)[C@H](CC(C)C)NC(=O)[C@@H](CCCCNC(=NCC)NCC)NC(=O)[C@H](Cc1ccc(O)cc1)NC(=O)[C@H](CO)NC(=O)[C@@H](Cc1cccnc1)NC(=O)[C@@H](Cc1ccc(Cl)cc1)NC(=O)[C@@H](Cc1ccc2ccccc2c1)NC(C)=O)C(=O)N1CCC[C@H]1C(=O)N[C@H](C)C(N)=O [GnRH antagonist, ganirelix] (Ac-[d2Nal][dPhe(4-Cl)][d3Pal]SY[d(hArg(Et2))]L[hArg(Et2)]P[dA]-NH2)
[1]
  # oocytes (MII oocytes collected per cycle, mean±SD): 11.7±5.6
  Peak E2: 2568.2 ± 806.1
Human SCNT embryos [2]
  NT-ESC lines derived: six

## CC(/C=C/C(=O)NO)=C\[C@@H](C)C(=O)c1ccc(N(C)C)cc1 [TSA, trichostatin A]
Monkey SCNT embryo [3]; TSA 5 nM for 12 h, N 212
  8-cell (%): (92.8) %
  8-cell, number: 192
  Blastocysts (%): 14.5%
  Blastocysts, number: 30
  CM (%): (26.0) %
  CM, number: 58
  PN (%): (98.6) %
  PN, number: 207
  fused (%): (99.1) %
  fused, number: 210
Monkey SCNT embryo [3]; TSA 10 nM for 12 h, N 571
  8-cell (%): (93.7) %
  8-cell, number: 494
  Blastocysts (%): 18.8%
  Blastocysts, number: 99
  CM (%): (27.9) %
  CM, number: 147
  PN (%): (94.4) %
  PN, number: 535
  fused (%): (99.3) %
  fused, number: 567
Monkey SCNT embryo [3]; TSA 10 nM for 24 h, N 108
  8-cell (%): (97.1) %
  8-cell, number: 100
  Blastocysts (%): 24.3%
  Blastocysts, number: 25
  CM (%): (32.0) %
  CM, number: 33
  PN (%): (100) %
  PN, number: 104
  fused (%): (95.4) %
  fused, number: 104
Monkey SCNT embryo [3]; TSA 37.5 nM for 24 h, N 511
  8-cell (%): (90.3) %
  8-cell, number: 418
  Blastocysts (%): 18.4%
  Blastocysts, number: 85
  CM (%): (23.1) %
  CM, number: 107
  PN (%): (99.0) %
  PN, number: 498
  fused (%): (98.4) %
  fused, number: 503
Monkey SCNT embryo [3]; reducing TSA concentration to 10 nM or shortening exposure from 24 h to 12 h
  effect on blastocyst rates: did not affect blastocyst rates
Monkey SCNT blastocysts; TSA 5 nM, 12 h, 7 plated blastocysts
  # NT-ESCs: 0
Monkey SCNT blastocysts; [6]
  # NT-ESCs: 3
  # NT-ESCs (%): 13%
Monkey SCNT blastocysts; TSA 10 nM, 24 h, 4 plated blastocysts
  # NT-ESCs: 0
Monkey SCNT embryo [4]
  development of monkey SCNT embryos to blastocysts: 18%

## Cn1c(=O)c2c(ncn2C)n(C)c1=O [caffeine]
Human SCNT embryos [5]; 1.25 mM caffeine during enucleation and fusion
  blastocyst development of caffeine treated embryos: 23.5%
Human SCNT embryos [5]; 1.25 mM caffeine during enucleation and somatic cell fusion, 10/12
  somatic cell nuclei forming spindle-like structures: 83.3%
